Source: patent publication US10239883B2, “4-imidazopyridazin-1-yl-benzamides as BTK inhibitors” (Merck Sharp & Dohme B.V., priority 2011, dated 2019)

What was measured:
Lck enzyme = Lck enzyme (Homo sapiens (Human), UniProt P06239); assay: Lck enzyme activity, IMAP fluorescence polarization assay; conditions: 60 min pre-incubation, 6 μM ATP, bin bound in μM
Lyn enzyme = Lyn enzyme (Homo sapiens (Human), UniProt P07948); assay: Lyn enzyme activity, IMAP fluorescence polarization assay; conditions: for EC50 Lyn activity values: IMAP, 60 min pre-incubation, 2 μM ATP, bin bound in μM
Sequence of Lyn enzyme (P07948 whole entry): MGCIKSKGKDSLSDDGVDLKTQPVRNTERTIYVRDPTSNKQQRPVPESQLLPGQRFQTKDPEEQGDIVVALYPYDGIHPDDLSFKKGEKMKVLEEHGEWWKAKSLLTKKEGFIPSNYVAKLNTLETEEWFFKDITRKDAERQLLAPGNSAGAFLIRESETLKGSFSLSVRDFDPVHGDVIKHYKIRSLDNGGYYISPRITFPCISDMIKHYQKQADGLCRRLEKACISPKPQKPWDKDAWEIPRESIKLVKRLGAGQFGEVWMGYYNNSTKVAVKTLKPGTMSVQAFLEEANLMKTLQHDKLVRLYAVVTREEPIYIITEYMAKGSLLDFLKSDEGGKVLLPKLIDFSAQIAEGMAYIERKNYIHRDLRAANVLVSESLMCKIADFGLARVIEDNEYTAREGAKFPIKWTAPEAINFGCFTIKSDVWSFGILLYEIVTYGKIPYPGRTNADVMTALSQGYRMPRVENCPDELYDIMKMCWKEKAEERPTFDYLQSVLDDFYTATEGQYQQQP

Btk enzyme (His-Btk) = Btk enzyme (His-Btk) (Homo sapiens (Human), UniProt Q06187); assay: Btk enzyme activity, IMAP fluorescence polarization assay; conditions: 60 min pre-incubation, 5 μM ATP, bin bound in nM
Sequence of Btk enzyme (His-Btk) (Q06187 whole entry): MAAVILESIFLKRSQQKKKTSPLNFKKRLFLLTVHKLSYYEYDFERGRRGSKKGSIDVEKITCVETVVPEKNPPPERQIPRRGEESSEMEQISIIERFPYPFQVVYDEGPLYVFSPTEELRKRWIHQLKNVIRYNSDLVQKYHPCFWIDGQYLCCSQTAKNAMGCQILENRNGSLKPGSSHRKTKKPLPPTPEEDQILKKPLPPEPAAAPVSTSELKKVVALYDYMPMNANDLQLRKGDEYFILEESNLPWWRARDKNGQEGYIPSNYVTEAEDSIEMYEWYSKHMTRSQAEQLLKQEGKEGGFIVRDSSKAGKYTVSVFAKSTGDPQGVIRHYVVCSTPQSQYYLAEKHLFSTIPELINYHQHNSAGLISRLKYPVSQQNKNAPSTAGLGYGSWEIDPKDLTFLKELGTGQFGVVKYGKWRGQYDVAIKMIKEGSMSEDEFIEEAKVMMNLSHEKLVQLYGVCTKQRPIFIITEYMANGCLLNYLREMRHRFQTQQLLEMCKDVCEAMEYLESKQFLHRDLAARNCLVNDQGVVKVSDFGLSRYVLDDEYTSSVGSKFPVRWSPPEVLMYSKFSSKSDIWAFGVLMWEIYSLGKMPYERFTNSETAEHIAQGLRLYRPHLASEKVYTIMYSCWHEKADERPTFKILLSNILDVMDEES

Sequence of Lck enzyme (P06239 whole entry): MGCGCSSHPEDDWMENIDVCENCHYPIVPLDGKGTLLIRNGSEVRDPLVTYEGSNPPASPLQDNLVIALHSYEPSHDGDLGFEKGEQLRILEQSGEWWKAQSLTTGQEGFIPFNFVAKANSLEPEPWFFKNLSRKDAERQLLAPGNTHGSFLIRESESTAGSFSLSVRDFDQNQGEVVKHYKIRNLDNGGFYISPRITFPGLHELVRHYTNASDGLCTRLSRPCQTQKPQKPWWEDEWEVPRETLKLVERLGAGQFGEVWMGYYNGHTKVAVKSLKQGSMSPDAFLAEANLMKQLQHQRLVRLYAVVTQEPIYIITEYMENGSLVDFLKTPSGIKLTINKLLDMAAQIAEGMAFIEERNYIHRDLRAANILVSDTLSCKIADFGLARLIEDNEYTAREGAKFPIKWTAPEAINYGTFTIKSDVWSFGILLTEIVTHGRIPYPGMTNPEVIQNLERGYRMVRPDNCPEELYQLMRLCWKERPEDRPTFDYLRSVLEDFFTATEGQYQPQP

Compound | EC50 Lck activity values (Lck enzyme) | EC50 (Lyn enzyme) | EC50 Lyn activity values (Lyn enzyme) | EC50 Btk activity values (Btk enzyme (His-Btk))
CC#CC(=O)N1CCC[C@H]1c1nc(-c2ccc(C(=O)Nc3nccs3)cc2)c2c(N)nccn12 [Example 60, (S)-4-(8-amino-3-(1-but-2-ynoylpyrrolidin-2-yl)imidazo[1,5-a]pyrazin-1-yl)-N-(thiazol-2-yl)benzamide] | <1 µM | 100 to 1000 nM | <1 µM | <100 nM
C=CC(=O)N1CCC[C@H]1c1nc(-c2ccc(C(=O)Nc3cc(C)ccn3)cc2)c2c(N)nccn12 [Example 124, (S)-4-(3-(1-acryloylpyrrolidin-2-yl)-8-aminoimidazo[1,5-a]pyrazin-1-yl)-N-(4-methylpyridin-2-yl)benzamide] | <1 µM | – | <1 µM | –
C=CC(=O)N1CCC[C@H]1c1nc(-c2ccc(C(=O)Nc3cc(CCC)ccn3)cc2)c2c(N)nccn12 [Example 125, (S)-4-(3-(1-acryloylpyrrolidin-2-yl)-8-aminoimidazo[1,5-a]pyrazin-1-yl)-N-(4-propylpyridin-2-yl)benzamide] | <1 µM | – | <1 µM | –
C=CC(=O)N1CCC[C@H]1c1nc(-c2ccc(C(=O)Nc3cc(CC)ccn3)cc2)c2c(N)nccn12 [Example 126, (S)-4-(3-(1-acryloylpyrrolidin-2-yl)-8-aminoimidazo[1,5-a]pyrazin-1-yl)-N-(4-ethylpyridin-2-yl)benzamide] | <1 µM | – | <1 µM | –
C=CC(=O)N1CCC[C@H]1c1nc(-c2ccc(C(=O)Nc3cc(-c4ccccc4)ccn3)cc2)c2c(N)nccn12 [Example 133, (S)-4-(3-(1-acryloylpyrrolidin-2-yl)-8-aminoimidazo[1,5-a]pyrazin-1-yl)-N-(4-phenylpyridin-2-yl)benzamide] | <1 µM | – | <1 µM | –
